Measured values published in article PMC9095466 (Nature, 2022).
Where “and” joins values, the source holds several entries; their conditions need not be identical. Equal values may be shown once. Where a name gives a salt, the structure may show the parent alone. Read-outs that look alike come from different tables or passages of the source. *1 amine or outer side, *2 acyl side, *3 side chain or, on linkers, in order; H or OH if unused. Where a SMILES comes first, the peptide text is derived from it. Bridges are numbered along the chain shown (N, C = ends). [ ]: non-standard residue; d: D form. The star is where a group is joined. X1 = CC[C@H](C)[C@@H](N[*:1])[C@@H](O)CC(=O)O[C@H](C(=O)[C@H](C)C(=O)[*:2])C(C)C; NMeY = CN[C@@H](Cc1ccc(O)cc1)C(=O)O; dNMeL = CN[C@H](CC(C)C)C(=O)O; Pyruvoyl = CC(=O)C(=O)*

Key:
SARS-CoV-2 (VIDO) = type: cell-based; parameters: plaque assay titre, Figure 2c: unit not given beside the values; details: for reduction of viral titre (plaque assay): supernatant of infected Calu-3 cells, vs DMSO-treated infected control; for plaque assay titre, Figure 2c: replicate columns, listed as Cm
Recombinant human DESC1 = biological target: T1, Recombinant human DESC1 (Homo sapiens, UniProt Q9UL52); assay: Protease selectivity, Ki on recombinant protease; type: biochemical
T1 construct: made in house
T1 sequence (Q9UL52 1-423): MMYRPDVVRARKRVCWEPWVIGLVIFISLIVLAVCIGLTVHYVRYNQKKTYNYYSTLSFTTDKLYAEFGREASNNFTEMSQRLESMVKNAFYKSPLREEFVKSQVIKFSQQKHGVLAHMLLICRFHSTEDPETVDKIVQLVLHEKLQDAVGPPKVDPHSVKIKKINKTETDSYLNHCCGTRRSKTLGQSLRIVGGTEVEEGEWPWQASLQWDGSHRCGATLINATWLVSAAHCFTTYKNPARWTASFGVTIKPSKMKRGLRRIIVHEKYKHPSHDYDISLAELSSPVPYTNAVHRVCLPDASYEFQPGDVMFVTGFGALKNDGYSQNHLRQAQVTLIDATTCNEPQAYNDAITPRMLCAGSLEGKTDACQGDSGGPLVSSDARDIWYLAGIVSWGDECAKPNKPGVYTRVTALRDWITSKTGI

[1] = tested on: SARS-CoV-2 lineage B strain (VIDO); assay: microbe, parasite or virus in culture; type: cell-based; details: for Nucleocapsid / dsRNA: Figure 2a, two replicates; for Nucleocapsid: DMSO control about 91-94; for dsRNA: DMSO control about 93-95; for inhibition at 0.1 µM: read-out: inhibition of SARS-CoV-2 infection
human TMPRSS2 = human TMPRSS2 (Homo sapiens, UniProt O15393); assay: cell-based; details: for TMPRSS2 activity (%): Figure 1B, single experiments N1-N3; for inhibition at 0.01 µM: Vero C1008, read-out: inhibition of TMPRSS2 activity (reduction of substrate proteolysis)
SARS-CoV-2 [2] = tested on: SARS-CoV-2; parameters: method as in PMID 32142651, PMID 33844653; details: adenovirus hACE2 model; cited from earlier work
SARS-CoV-2 [3] = tested on: SARS-CoV-2; parameters: method as in PMID 33903855; details: hospitalized patients with COVID-19; cited from earlier work
Vero E6 cells = assay: Cytotoxicity assay (Cell Titer-Glo 2.0) in Vero E6 cells; type: cell-based; details: 24 h, single experiments N1-N4
Procedure: (§1) Calu-3 and Vero E6 cells (2500 or 10,000 cells for samples, 80–20,000 cells for standard curve) were seeded in 96-well plates. Following a 24-h incubation at 37 °C, 5% CO2, cells were washed with D-PBS and compounds added (10 µM) for an additional 24-h incubation. Cellular viability was assessed using Cell Titer-Glo 2.0 Cell Viability Assay (Promega) according to the manufacturer’s instructions. The number of viable cells was extrapolated using the standard curve. Cellular viability in Vero E6 cells was expressed relative (%) to vehicle-treated cells. Data are from four independent experiments (mean ± s.d.).

[4] = biological target: T2, Recombinant human matriptase (Homo sapiens, UniProt Q9Y5Y6); assay: Protease selectivity, Ki on recombinant protease; type: biochemical
T2 construct: made in house
T2 sequence (Q9Y5Y6 1-855): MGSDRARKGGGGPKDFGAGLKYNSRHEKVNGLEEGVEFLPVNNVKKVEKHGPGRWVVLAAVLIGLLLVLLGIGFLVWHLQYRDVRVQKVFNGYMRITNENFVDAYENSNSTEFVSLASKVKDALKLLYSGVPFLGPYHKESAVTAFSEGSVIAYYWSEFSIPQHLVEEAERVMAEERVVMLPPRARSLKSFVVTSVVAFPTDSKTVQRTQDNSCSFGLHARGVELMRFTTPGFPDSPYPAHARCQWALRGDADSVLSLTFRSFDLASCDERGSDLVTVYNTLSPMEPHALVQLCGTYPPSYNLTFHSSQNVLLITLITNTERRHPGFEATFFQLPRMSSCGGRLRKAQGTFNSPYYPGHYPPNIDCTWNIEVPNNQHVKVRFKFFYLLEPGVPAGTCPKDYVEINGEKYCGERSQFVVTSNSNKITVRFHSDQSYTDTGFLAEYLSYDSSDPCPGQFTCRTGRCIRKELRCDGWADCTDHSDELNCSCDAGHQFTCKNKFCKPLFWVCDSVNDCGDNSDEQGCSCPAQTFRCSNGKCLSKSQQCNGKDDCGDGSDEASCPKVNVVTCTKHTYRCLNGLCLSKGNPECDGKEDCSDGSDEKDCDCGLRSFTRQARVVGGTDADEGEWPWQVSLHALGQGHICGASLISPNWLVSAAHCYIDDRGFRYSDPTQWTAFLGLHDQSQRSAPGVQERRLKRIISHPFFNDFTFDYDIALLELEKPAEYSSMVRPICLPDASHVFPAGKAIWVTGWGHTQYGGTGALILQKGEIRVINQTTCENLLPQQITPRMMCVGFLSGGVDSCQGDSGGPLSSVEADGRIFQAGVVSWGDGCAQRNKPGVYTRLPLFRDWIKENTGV

[5] = Cytotoxicity assay (Cell Titer-Glo 2.0) in Vero E6 cells; type: cell-based; details: African green monkey, % Viability of Vero E6 cells
Procedure: as §1

SARS-CoV-2 [6] = tested on: SARS-CoV-2; parameters: method as in PMID 33495306; details: pneumocyte-like cells; read-out: EC50 against SARS-CoV-2 infection; cited from earlier work
[7] = Severe acute respiratory syndrome coronavirus 2, Calu-3
[8] = 10 nM compound, 24 h, vs untreated/vehicle TMPRSS2-expressing Vero E6 cells
[9] = 10 μM compound, relative to vehicle (DMSO 0.01%), 10 µM

Sequence of human TMPRSS2 (O15393 whole entry): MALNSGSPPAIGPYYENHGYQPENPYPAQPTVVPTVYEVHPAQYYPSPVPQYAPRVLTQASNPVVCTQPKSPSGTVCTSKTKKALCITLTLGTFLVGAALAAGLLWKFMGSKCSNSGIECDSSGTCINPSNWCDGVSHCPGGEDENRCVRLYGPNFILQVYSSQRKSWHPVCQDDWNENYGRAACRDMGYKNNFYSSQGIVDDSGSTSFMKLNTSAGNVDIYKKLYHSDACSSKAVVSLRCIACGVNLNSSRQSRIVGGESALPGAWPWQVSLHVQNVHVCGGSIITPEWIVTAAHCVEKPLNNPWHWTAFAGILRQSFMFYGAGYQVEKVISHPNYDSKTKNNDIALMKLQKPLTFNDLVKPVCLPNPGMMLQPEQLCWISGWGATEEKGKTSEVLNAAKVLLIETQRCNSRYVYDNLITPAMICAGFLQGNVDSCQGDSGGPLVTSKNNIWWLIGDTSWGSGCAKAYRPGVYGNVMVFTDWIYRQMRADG

**Q.** For `CN(C)C(=O)COC(=O)Cc1ccc(OC(=O)c2ccc(NC(=N)N)cc2)cc1` [Camostat mesylate, reference compound], which “reduction of viral titre (plaque assay)” value (SARS-CoV-2 (VIDO); 40 nM) is on record?
**A.** The value was “approximately half-log”.

**Q.** And the “plaque assay titre, Figure 2c” value (SARS-CoV-2 (VIDO); 40 nM)?
**A.** Its value is 1000 (6×) and 11000 (2×) and 20000 and 10000 (2×) and 80000 and 330000 and 30000 and 170000.

**Q.** And the “reduction of viral titre (plaque assay)” value (SARS-CoV-2 (VIDO); 200 nM)?
**A.** The value was “approximately 1.5 log”.

**Q.** And the “plaque assay titre, Figure 2c” value (SARS-CoV-2 (VIDO); 200 nM)?
**A.** The value was 1000 (9×) and 40000 and 10000 (3×) and 130000 and 30000 and 20000.

**Q.** What about the Ki (Recombinant human DESC1; mean ± s.d., max concentration 10 µM, read-out: Ki DESC1) of the same compound?
**A.** Its Ki is 5.8 ± 3.4 nM.

**Q.** What about the Ki (Recombinant human DESC1; single experiments N1-N3, Figure 1D, read-out: Individual Ki, Desc1) of the same compound?
**A.** Its Ki is 7.88 nM and 7.73 nM and 1.85 nM.

**Q.** And the Nucleocapsid ([1]; listed as Cm)?
**A.** The Nucleocapsid was 8.612 and 24.2399.

**Q.** And the dsRNA ([1]; listed as Cm)?
**A.** The dsRNA was 17.4079 and 31.7604.

**Q.** And the EC50 ([1]; Severe acute respiratory syndrome coronavirus 2, Calu-3, read-out: SARS-CoV-2 VIDO Nucleocapsid EC50 ± SE)?
**A.** The EC50 was 10.6 ± 8.4 nM.

**Q.** What about the inhibition at 0.1 µM [1, 7] of the same compound?
**A.** Its inhibition at 0.1 µM is greater than 83%.

**Q.** And the “Figure 2b dose-response, Mean” value ([1]; log [C] (nM) 0.20412)?
**A.** The value was 84.468.

**Q.** What about the “Figure 2b dose-response, Mean” value ([1]; log [C] (nM) 0.90309) of the same compound?
**A.** Its value is 76.973.

**Q.** What about the “Figure 2b dose-response, Mean” value ([1]; log [C] (nM) 1.60206) of the same compound?
**A.** Its value is 24.9288.

**Q.** What about the “Figure 2b dose-response, Mean” value ([1]; log [C] (nM) 2.30103) of the same compound?
**A.** The value was 0.8428.

**Q.** And the “Figure 2b dose-response, Mean” value ([1]; log [C] (nM) 3)?
**A.** The value was 0.2267.

**Q.** What about the “Figure 2b dose-response, Mean” value ([1]; log [C] (nM) -0.49485) of the same compound?
**A.** Its value is 80.5882.

**Q.** And the “Figure 2b dose-response, Mean” value ([1]; log [C] (nM) -1.19382)?
**A.** Its value is 94.4767.

**Q.** What about the “TMPRSS2 activity (%)” value (human TMPRSS2; listed as Cm) of the same compound?
**A.** Its value is 51.0758% and 41.2255% and 43.3144%.

**Q.** What about the inhibition at 0.01 µM (human TMPRSS2; [8]) of the same compound?
**A.** The inhibition at 0.01 µM was 56%.

**Q.** And the protection against infection (SARS-CoV-2 [2])?
**A.** The protection against infection was “no significant protection against infection was observed”.

**Q.** And the “effect on the time to recovery and incidence of death” value (SARS-CoV-2 [3])?
**A.** The value was “no effect”.

**Q.** What about the “% Viability of Vero E6 cells” value (Vero E6 cells; [9]) of the same compound?
**A.** The value was 115.453% and 94.4731% and 96.0284% and 136.615%.

**Q.** And the Ki ([4]; mean ± s.d., max concentration 10 µM, read-out: Ki Matriptase)?
**A.** Its Ki is 5.6 ± 1 nM.

**Q.** What about the Ki ([4]; single experiments N1-N3, Figure 1D, read-out: Individual Ki, Matriptase) of the same compound?
**A.** Its Ki is 6.79 nM and 5.15 nM and 4.98 nM.

**Q.** Which Nucleocapsid [1] does the source give for `CC(NC(=O)C(CCC(N)=O)NC(=O)C(N)CCCNC(=N)N)C(=O)NC(CCCNC(=N)N)C(=O)c1nc2ccccc2s1` (centres unmarked) [Compound N-0100] here?
**A.** Its Nucleocapsid is 59.9825 and 100.

**Q.** And the dsRNA [1]?
**A.** Its dsRNA is 53.1735 and 98.3497.

**Q.** What about the inhibition at 0.1 µM [1, 7] of the same compound?
**A.** The inhibition at 0.1 µM was less than 25%.

**Q.** What about the “inhibition of TMPRSS2 activity (reduction of substrate proteolysis)” value (human TMPRSS2; [8]) of the same compound?
**A.** The value was “did not inhibit”.

**Q.** And the “TMPRSS2 activity (%)” value (human TMPRSS2)?
**A.** The value was 113.572% and 108.611% and 101.926%.

**Q.** What about the “% Viability of Vero E6 cells” value (Vero E6 cells; [9]) of the same compound?
**A.** Its value is 122.116% and 96.727% and 87.5998% and 134.594%.

**Q.** For `N=C(N)NCCCCC(=O)NC(CCC(N)=O)C(=O)NC(CC1CCCCC1)C(=O)NC(CCCNC(=N)N)C(=O)c1nc2ccccc2s1` (centres unmarked) [Compound N-0678], which Nucleocapsid [1] is on record?
**A.** Its Nucleocapsid is 70.7269 and 93.9071.

**Q.** What about the dsRNA [1] of the same compound?
**A.** Its dsRNA is 64.9837 and 89.8579.

**Q.** And the inhibition at 0.1 µM [1, 7]?
**A.** The inhibition at 0.1 µM was less than 23%.

**Q.** And the “TMPRSS2 activity (%)” value (human TMPRSS2)?
**A.** The value was 91.6478% and 104.935% and 97.8749%.

**Q.** And the inhibition at 0.01 µM (human TMPRSS2; [8])?
**A.** The inhibition at 0.01 µM was 5%.

**Q.** And the viability at 24 h, 10 µM [5]?
**A.** The viability at 24 h, 10 µM was 113%.

**Q.** For `CC[C@H](C)[C@H]1NC(=O)[C@@H](NC(=O)[C@@H](CC(C)C)N(C)C(=O)[C@@H]2CCCN2C(=O)C(C)=O)[C@@H](C)OC(=O)[C@H](Cc2ccc(OC)cc2)N(C)C(=O)[C@@H]2CCCN2C(=O)[C@H](CC(C)C)NC(=O)[C@@H](C)C(=O)[C@H](C(C)C)OC(=O)C[C@@H]1O` [Plitidepsin] (Pyruvoyl-P[dNMeL]T[X1]LP[NMeY](Me); ester 3-C), which EC50 (SARS-CoV-2 [6]) is on record?
**A.** Its EC50 is 1.62 nM.

**Q.** For Triton X-100 [reference compound], which “% Viability of Vero E6 cells” value (Vero E6 cells; Triton X-100 0.01% toxicity control) is on record?
**A.** Its value is 0.08115% and 6.372% and 5.985% and 2.918%.
